Assay: Resistance to rinse by colorimetry (Indigotine dye revelation, chromameter)
Format: physicochemical
Settings: 50 μl on ceramic tile, rinsed 2×10 ml deionized water, Indigotine dye 0.033%
Procedure: Methodology: 50 μl of each solution in deionized water is deposited on a ceramic tile 2.5 cm×2.5 cm. After drying at room temperature, the treated tiles are rinsed with 2×10 ml deionized water. The revelation is then performed with 200 μl lndigotine dye ex. Wackherr (Cl 73015) at 0.033% in deionized water (3 minutes contact). After removing the excess of dye with 10 ml deionized water and drying of the surface, the coloration intensity is measured with a chromameter (Minolta CR200™). The higher the ΔE, the higher the difference of coloration versus the reference tile (no treatment, no contact with the dye). The coloration is the signal of the persistence of the PHMB on the surface after rinsing.

- ΔE (coloration versus reference tile): 0.5
Compound: CCCCCCCCCCCCOS(=O)(=O)[O-].[Na+] [SLS 0.1%, sodium lauryl sulfate]
